Source: US20150337315A1, “COMPOSITIONS AND METHODS TARGETING SIGNALING BY THE G PROTEIN BETA-GAMMA SUBUNIT FOR THE TREATMENT OF ASTHMA” (priority 2014, published 2015)
Entries after “also recorded” stand apart in the source; their conditions may differ.

Columns and labels:
[1] = system: PDE activity in asthmatic HASM cells; experiment: cAMP PDE activity assay in lysates of treated or siRNA-transfected asthmatic HASM cells; assay type: cell-based, human; conditions: for effect on heightened basal PDE activity: × 2 hr
Protocol: Primary cultures of HASM cells derived from bronchial smooth muscle freshly isolated post-mortem from normal non-asthmatic (n=3) and asthmatic (n=4) donor lungs were purchased at passage 2-3 from Lonza Walkersville, Inc. Other than data regarding age, race, and gender of the donors provided in Table 1, limited information was available with respect to clinical severity of asthma, treatment history, or cause of death, with exception to asthma donor #1. All the experiments were conducted at passage 5-6, after growing the cells in Lonza's serum-containing SmBM medium supplemented with the BulletKit medium that contains insulin, human FGF, gentamycin/amphotericin B. The cells were maintained throughout in a humidified incubator containing 5% CO2 in air at 37° C. and, after attaining ˜90% confluence, cells were growth arrested for 24 hr in serum-free Ham's F12 medium. Thereafter, the cells were examined for constitutive and induced changes in PDE activity, levels of free Gβ, c-Src and ERK1/2 phosphorylation, and PDE4D protein expression, all in the absence and presence of different pretreatment conditions, as described.
Levels of total cAMP PDE activity were determined in normal and asthmatic HASM cells at baseline and at different times ranging from 0.25-24 hr following administration of a maximally effective concentration of either: 1) a cell permeable anti-Gβγ blocking peptide (1 μM; AnaSpec; Premont, Calif.), comprised of a membrane permeable sequence (MPS; 15 amino acids) conjugated to the Gβγ-sequestering C-terminal domain (28 amino acids) of phosducin-like protein [28]; 2) the inert MPS peptide alone (1 μM) serving as a negative-control; or 3) 1 μM of gallein [29], a recently described small molecule inhibitor of Gβγ signaling (Acros Organics). PDE activity was also assayed in normal and asthmatic HASM cells following dose-dependent administration of anti-Gβγ blocking peptide (0.01-10 μM), and following treatment with various small molecule inhibitors, as described. The PDE activity assay was performed in the HASM cell lysates using a colorimetric, non-radioactive enzymatic assay (Enzo Life Sciences; Plymouth Meeting, Pa.) as per the manufacturer's protocol, with some modification of our previously described approach. Specifically, to maximize the sensitivity and yield of the measurement enzyme activity, we used materials including a cell lysis buffer completely free of phosphate, composed of 50 mM Tris, pH 7.5, 0.1 mM EDTA, 0.1 mM EGTA, 1 mM DTT and 0.2% NP-40. The measured levels of PDE activity were standardized to protein content in the cell extracts. Finally, PDE activity was also assayed in normal and asthmatic HASM cells following transfection with siRNA preparations targeted at suppressing specific signaling molecules, as described below.
Targeted protein suppression using siRNA preparations was examined in normal and asthmatic HASM cells that were initially seeded into 6-well plates and, at ˜40% confluency, the medium was replaced with the reduced serum-containing medium, Opti-MEM (Invitrogen). Cells were then transfected twice during a 24-hr interval with pools of siRNA preparations, each pool comprised of three siRNA duplexes targeted against either human Rap1GAP (Ambion; ID: s11785, s11786, s11787), RGS14, (Ambion; ID: 18059, 18147, 135857), or the PKAα catalytic subunit (Santa Cruz Biotechnology; Pool ID: sc-36240), as well as a non-targeted (scrambled) siRNA duplex serving as a negative control. As previously described [16.17.31], the transfections were carried out using Oligofectamine (Invitrogen) as the transfection agent, and the pools of siRNAs were applied to each well at a final concentration of 100 nM for each siRNA preparation.

[2] = system: PDE activity evoked in cultured normal HASM cells; conditions: sensitized under various proasthmatic conditions; [16-18]; cited from earlier work
[3] = system: isolated rabbit ASM tissues; conditions: sensitized under various proasthmatic conditions; [16-18]; cited from earlier work
[4] = system: phosphorylated c-Src (p-Src); experiment: Immunoblot of phosphorylated c-Src (Tyr416) in asthmatic HASM cells; assay type: cell-based, human
Protocol: (§1) Levels of total and phosphorylated c-Src at residue Tyr416 and ERK1/2 proteins, as well as Gβ protein, were detected by Western blot analysis of lysates isolated from normal and asthmatic HASM cells before and at various times after treatment either with 1 μM of anti-Gβγ blocking peptide or gallein, or the c-Src family tyrosine kinase-selective inhibitor, SU6656 (10 μM), or exposure to the pro-asthmatic Th2 cytokine, IL-13 (50 ng/ml), as described. Following protein extraction and addition of gel loading buffer, the cellular extracts were loaded on a 10% SDS-PAGE gel for immunoblotting after transfer to a PVDF membrane. The membranes were then incubated overnight with monoclonal mouse anti-human primary antibodies directed against c-Src, phospho-c-Src^Tyr416, ERK1/2 and phospho-ERK1/2 (Millipore; Billerica, Mass.), and a rabbit anti-human polyclonal antibody directed against the Gβ subunit (Millipore; Billerica, Mass.). Protein levels were detected by ECL after a 1-hr incubation with a 1:2,000 dilution of HRP-conjugated secondary antibody, followed by exposure to autoradiography film. The protein band intensities were quantified by densitometry.

[5] = system: PDE activity detected in cultured asthmatic HASM cells; conditions: recent report [27]; cited from earlier work
asthmatic individuals = conditions: cited from earlier work
[6] = system: co-localization of p-Src with immunoprecipitated Gβ; experiment: Co-IP of p-Src with immunoprecipitated Gβ in IL-13-treated normal HASM cells; assay type: cell-based, human; conditions: IL-13 × 60 min
Protocol: as §1, with “The membranes were then incubated overnight with monoclonal mouse anti-human primary antibodies directed against c-Src, phospho-c-Src^Tyr416, ERK1/2 and phospho-ERK1/2 (Millipore; Billerica, Mass.), and a rabbit anti-human polyclonal antibody directed against the Gβ subunit (Millipore; Billerica, Mass.).” left out
(§2) Normal and asthmatic HASM cells were prepared for co-immunoprecipitation (Co-IP) studies, performed as previously described, under native conditions in order to preserve protein-protein associations. […] The precipitated immunocomplexes were subsequently analyzed by immunoblotting using either anti-Gβ, anti-phospho-c-Src^Tyr416, anti-ERK1/2, or anti-PDE4D rabbit polyclonal antibody, or anti-Rap1GAP rabbit monoclonal IgG antibody (Millipore; Billerica, Mass.).

free Gβ protein levels = experiment: Immunoblot of free Gβ protein in IL-13-treated normal HASM cells; assay type: cell-based, human; conditions: IL-13 50 ng/ml, 50 μg/ml printed
Protocol: as §1

[7] = system: co-localization of Gβ with immunoprecipitated Gα; experiment: Western blot / Co-IP of free Gβ and Gα-associated Gβ in asthmatic HASM cells; assay type: cell-based, human; conditions: 1 μM, 30 min
Protocol: as §1, with “The membranes were then incubated overnight with monoclonal mouse anti-human primary antibodies directed against c-Src, phospho-c-Src^Tyr416, ERK1/2 and phospho-ERK1/2 (Millipore; Billerica, Mass.), and a rabbit anti-human polyclonal antibody directed against the Gβ subunit (Millipore; Billerica, Mass.).” left out
as §2

[8] = system: co-localization of Gβ with immunoprecipitated Gα; experiment: Western blot / Co-IP of free Gβ and Gα-associated Gβ in normal HASM cells; assay type: cell-based, human; conditions: 1 μM, 30 min
Protocol: as §1, with “The membranes were then incubated overnight with monoclonal mouse anti-human primary antibodies directed against c-Src, phospho-c-Src^Tyr416, ERK1/2 and phospho-ERK1/2 (Millipore; Billerica, Mass.), and a rabbit anti-human polyclonal antibody directed against the Gβ subunit (Millipore; Billerica, Mass.).” left out
as §2

[9] = system: phosphorylated ERK1/2 (p-ERK1/2); experiment: Immunoblot of phosphorylated ERK1/2 in asthmatic HASM cells; assay type: cell-based, human; conditions: 1 μM × 30 min
Protocol: as §1

[10] = system: co-localization of ERK1/2 with PDE4D; experiment: Co-IP of PDE4D with immunoprecipitated ERK1/2 in asthmatic HASM cells; assay type: cell-based, human; conditions: within 30 min
Protocol: Normal and asthmatic HASM cells were prepared for co-immunoprecipitation (Co-IP) studies, performed as previously described, under native conditions in order to preserve protein-protein associations. After indicated treatments, cells were harvested and then exposed to lysis buffer. 1.5 mg of Protein G Dynabeads (Invitrogen; Carlsbad, Calif.) were incubated with 10 μg of anti-Gβ rabbit IgG (Millipore) or anti-Gα (pan) rabbit polyclonal antibody (Millipore; Billerica, Mass.) and incubated for 10 min at room temperature with rotation. Following several washes, the bound bead/antibody complex was added to sample, mixed by pipetting, and incubated for 2 hr at 4° C. with rotation. The captured bead/Protein G/antigen complex was then washed several times and eluted at pH 3.0 with rotation at room temperature. The precipitated immunocomplexes were subsequently analyzed by immunoblotting using either anti-Gβ, anti-phospho-c-Src^Tyr416, anti-ERK1/2, or anti-PDE4D rabbit polyclonal antibody, or anti-Rap1GAP rabbit monoclonal IgG antibody (Millipore; Billerica, Mass.).

allergic rabbits = conditions: previous study (18); cited from earlier work

COc1ccc(C2CNC(=O)C2)cc1OC1CCCC1 (centres unmarked) [rolipram]
effect on heightened constitutive PDE activity ([1]; 10 μM × 1 hr, data not shown): completely abrogated | effect on increased PDE activity evoked in cultured normal HASM cells [2]: inhibits | effect on increased PDE activity evoked in isolated rabbit ASM tissues [3]: inhibits

Oc1ccc(-c2nc(-c3ccncc3)c(-c3ccc(F)cc3)[nH]2)cc1 [SB202190]
effect on heightened basal PDE activity ([1]; 10 μM): no significant effect

O=c1cc(N2CCOCC2)oc2c(-c3ccccc3)cccc12 [LY294002]
effect on heightened basal PDE activity ([1]; 10 μM): no significant effect

CN(C)S(=O)(=O)c1ccc2c(c1)/C(=C/c1cc3c([nH]1)CCCC3)C(=O)N2 [SU6656]
effect on heightened basal PDE activity ([1]; 10 μM): suppressed to near normal levels; also recorded: acutely reversed to near normal levels | effect on constitutively increased p-Src levels ([4]; SU6656 10 μM): suppressive effect

COc1ccc([C@]2(C#N)CC[C@@H](C(=O)O)CC2)cc1OC1CCCC1 [cilomilast]
effect on increased PDE activity in cultured asthmatic HASM cells [5]: inhibited

O=C(Nc1c(Cl)cncc1Cl)c1ccc(OC(F)F)c(OCC2CC2)c1 [roflumilast]
effect on airway hyperresponsiveness following allergen challenge (asthmatic individuals; [19,21]): decreases airway hyperresponsiveness | effect on lung function (asthmatic individuals; [20]): improves lung function | effect on increased PDE activity in cultured asthmatic HASM cells [5]: inhibited

IL-13: pro-asthmatic Th2 cytokine used as stimulus
effect on co-localization of p-Src with immunoprecipitated Gβ ([6]; relative to unstimulated cells): increased co-localization; also recorded: enhanced co-localization | time of peak of evoked increase in free Gβ levels (free Gβ protein levels): 60 to 90 min

N#CC(=C(/N)Sc1ccccc1N)/C(C#N)=C(\N)Sc1ccccc1N [U0126]
effect on heightened basal PDE activity ([1]; 5 μM): acutely reversed to near normal levels; also recorded: acutely suppressed the elevated PDE activity in asthmatic HASM cells to near normal levels

O=C1OC2(c3ccccc31)c1ccc(O)c(O)c1Oc1c2ccc(O)c1O [gallein]
time at which PDE activity is suppressed to normal levels ([1]; 1 μM): 0.25 h | effect on constitutively increased PDE activity in asthmatic HASM cells ([1]; 1 μM (maximally effective concentration), acute effect): similarly acutely suppressed | duration of suppression of PDE activity ([1]; 1 μM, followed up to 24 hr): transient in nature | effect on Gβ distribution (increased free Gβ, reduced Gα-associated Gβ) [7]: acutely reversed | effect on Gβ distribution [8]: neither inhibitor had an effect | effect on constitutively increased p-Src levels ([4]; 1 μM × 30 min): acutely suppressed | effect on constitutively increased p-ERK1/2 levels [9]: acutely suppressed | effect of pretreatment on IL-13-induced co-localization of p-Src with immunoprecipitated Gβ [6]: abrogated | effect on heightened co-localization of ERK1/2 with PDE4D [10]: acutely reversed | effect of pretreatment on in vivo AHR elicited by allergen challenge (allergic rabbits): only suppressed AHR | effect of pretreatment on pulmonary inflammation elicited by allergen challenge (allergic rabbits): no appreciable inhibitory effect

O=S(=O)(NCCNC/C=C/c1ccc(Br)cc1)c1cccc2cnccc12 [H89]
effect on heightened basal PDE activity ([1]; 10 μM): no significant effect
